Laboratory results as given in patent publication US20240041870A1, “METHODS OF TREATING SYSTEMIC LUPUS ERYTHEMATOSUS” (AbbVie Inc., priority 2022, published 2024).

Tests used:
[1] = system: anti-dsDNA autoantibodies, complement C3 and C4, IgG, IgM, circulating B cells; experiment: Biomarker analysis in Study M19-130; format: in vivo, human
Excerpt: Biospecimens (whole blood, peripheral blood mononuclear cells [PBMCs], plasma, and serum) were collected at specified time points throughout the study to evaluate known and/or novel disease-related or drug-related biomarkers. Types of biomarkers may have included nucleic acids, proteins, lipids, RNA, DNA, and/or metabolites. The objective of this research was to analyze samples for biomarkers that would help to understand SLE, related conditions, and response to treatment with upadacitinib or similar compounds.
Increased circulating memory, naïve, and total B cells were also observed.
The Week 48 predefined biomarker analyses confirmed the trends observed at Week 24.

[2] = system: subjects with moderately to severely active SLE; experiment: Exposure-response analysis (logistic regression) of upadacitinib steady-state Cavg vs efficacy endpoints; design: species or system human
Protocol: Quartile plots for the relationships between upadacitinib steady-state (SS) Cavg and efficacy responses at Week 24 are shown in FIG. 5A to 5C. Specifically, FIG. 5A is an exposure-response quartile plot for upadacitinib efficacy at week 24 for the efficacy endpoint of SLE Responder Index (SRI-4) and Steroid Dose ≤10 mg prednisone equivalent QD, FIG. 5B is an exposure-response quartile plot for upadacitinib efficacy at week 24 for the efficacy endpoint of BILAG-Based Combined Lupus Assessment (BICLA), and FIG. 5C is an exposure-response quartile plot for upadacitinib efficacy at week 24 for the efficacy endpoint of SLE Responder Index (SRI-4).
The highest upadacitinib steady-state (SS) Cavg quartile (which would be equivalent to 45 mg QD exposures) was consistently associated with the highest observed response across the three endpoints and was the primary driver for upadacitinib exposure-response trends. The exposure-response model-predicted median (90% prediction interval) percentage of subjects achieving SRI-4 and steroid dose ≤10 mg prednisone equivalent QD, BICLA, and SRI-4 at Week 24 is 50% (42% to 58%), 57% (50% to 65%), and 55% (47% to 62%), respectively, for upadacitinib 30 mg UPA QD compared to 38% (31% to 46%), 39% (32% to 46%), and 40% (32% to 47%), respectively, for placebo. A upadacitinib 45 mg QD dose is predicted to provide 6% to 8% greater responses compared to 30 mg QD.
Quartile plots for the relationships between upadacitinib Cavg and efficacy responses at Week 48 are shown in FIGS. 10A-10C (SRI-4 and steroid dose ≤10 mg prednisone equivalent, SRI-4, and BICLA, respectively). Based on logistic regression analysis, there is an exposure-response relationship (p <0.05) for upadacitinib with each of the Week 48 efficacy endpoints (SRI-4 and steroid dose (10 mg prednisone equivalent QD, BICLA, and SRI-4). […]

[3] = Upadacitinib pharmacokinetics in Study M19-130 (model-estimated steady-state exposure); format: in vivo, human; conditions: 30 mg QD; subjects with SLE; plasma
Excerpt: Upadacitinib plasma concentrations were summarized at each sampling time point using descriptive statistics. A mixed-effects modeling approach may have been used to estimate the population central value and the empirical Bayesian estimates of the individual values for upadacitinib oral clearance (CL/F) and volume of distribution (Vss/F). Additional parameters and pharmacokinetic (PK)/pharmacodynamic relationships may have been estimated if useful in the interpretation of the data.
The model-estimated median ([…]) steady-state (SS) Cavg in subjects with SLE was 28.4 (19.1-46.6) ng/mL for upadacitinib 30 mg QD.

model-estimated median (prediction interval) steady-state (SS) Cavg [3]: 28.4 (19.1-46.6) ng/mL
Structure (SMILES): CC[C@@H]1CN(C(=O)NCC(F)(F)F)C[C@@H]1c1cnc2cnc3[nH]ccc3n12 [Upadacitinib, (3S,4R)-3-ethyl-4-(3H-imidazo[1,2-a]pyrrolo[2,3-e]pyrazin-8-yl)-N-(2,2,2-trifluoroethyl)pyrrolidine-1-carboxamide]
anti-dsDNA autoantibodies ([1]; 30 mg QD, Week 48 analysis): meaningful decreases
complement C3 level ([1]; 30 mg QD, Week 48 analysis): early reduction (a known effect of JAK inhibitors) followed by a progressive normalization
complement C4 level ([1]; 30 mg QD, Week 48 analysis): early reduction (a known effect of JAK inhibitors) followed by a progressive normalization
circulating memory B cells ([1]; 30 mg, Week 24 analysis): Increased
circulating naïve B cells ([1]; 30 mg, Week 24 analysis): Increased
circulating total B cells ([1]; 30 mg, Week 24 analysis): Increased
level of C3 complement compared to Baseline ([1]; 30 mg, Week 24 analysis): significant decrease
level of C4 complement compared to Baseline ([1]; 30 mg, Week 24 analysis): significant decrease
level of IgG ([1]; 30 mg, Week 24 analysis): significant decreases
level of IgM compared to Baseline ([1]; 30 mg, Week 24 analysis): significant decrease
level of anti-dsDNA autoantibodies ([1]; 30 mg, Week 24 analysis): significant decreases
plateau for efficacy at the plasma exposures evaluated ([2]; exposures associated with 30 mg QD, Week 24): not reached
relationship of upadacitinib plasma exposures with SRI-4 and steroid dose ≤10 mg prednisone equivalent, SRI-4, and BICLA at Week 24 ([2]; logistic regression, p<0.05, Week 24): statistically significant relationship
exposure-response relationship with SRI-4 and steroid dose ≤10 mg prednisone equivalent, SRI-4, and BICLA at Week 48 ([2]; logistic regression, p<0.05, Week 48): clear exposure-response relationship
